Source: publication PMC11599453 (The Journal of Biological Chemistry, 2024)
Substitutions are numbered along the chain they refer to. Values joined by “and” are separate entries in the source; they are usually repeats but may differ in a detail not shown here. Identical values can stand only once. Counter-ions that a name gives are not always drawn. Blank lines part the entries; values can stand above or below the compound they belong to.

Key:
CRISP2 [1] = biological target: T1, CRISP2 (Homo sapiens, UniProt P16562); assay: Microscale thermophoresis (MST) binding to fluorescently labeled CRISP2
T1 sequence (P16562 22-243): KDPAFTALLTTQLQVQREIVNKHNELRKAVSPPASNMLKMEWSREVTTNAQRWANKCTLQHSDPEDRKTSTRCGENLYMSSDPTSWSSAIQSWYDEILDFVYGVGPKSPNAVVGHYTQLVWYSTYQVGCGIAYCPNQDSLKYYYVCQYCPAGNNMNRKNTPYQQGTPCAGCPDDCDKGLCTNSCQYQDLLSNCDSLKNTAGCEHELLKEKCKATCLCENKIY
Method: (§1) MST is based on the diffusion of a fluorescently labeled molecule along a microscopic temperature gradient. In this assay, the free protein diffuses faster than its ligand-bound form. Ligands can range from small ions to low molecular weight compounds, liposomes, and even entire viruses ([35], [39], [40], [41]).
(§2) To assess protein-protein and protein-lipid interactions, MST experiments were performed using a Monolith NT.115 (Nanotemper Technologies). […] Samples were loaded into MST standard capillaries, and MST measurements were performed using an 80% laser power setting. The dissociation constant Kd was obtained by plotting the fraction bound against the logarithm of ligand concentration, using Prism software to fit a binding curve to the data point using the "one site specific" binding option. All MST measurements were performed in triplicate, with each set of experiments including a negative control to rule out nonspecific binding.

CRISP2 [2] = biological target: T2, CRISP2 (Homo sapiens, UniProt P16562); assay: as above; settings: Kd of cholesterol sulfate binding by CRISP2 in the presence of Ig1, MST; CRISP2-Ig1
T2 sequence (P16562 22-243): T1 sequence (P16562 22-243)
T2 sequence (P04217 with tags, fused parts or gaps partner): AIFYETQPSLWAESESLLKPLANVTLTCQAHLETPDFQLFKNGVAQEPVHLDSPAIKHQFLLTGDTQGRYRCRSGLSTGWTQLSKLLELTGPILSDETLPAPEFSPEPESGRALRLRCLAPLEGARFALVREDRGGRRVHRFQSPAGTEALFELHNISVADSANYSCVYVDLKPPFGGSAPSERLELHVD
Method: as §1, §2

CRISP2^L98G Y99P = biological target: T3, CRISP2^L98G Y99P (Homo sapiens, UniProt P16562, L98G/Y99P); assay: MST binding to labeled CRISP2 L98G Y99P mutant
T3 construct: made in house; host or cells: E. coli BL21
T3 sequence (P16562 22-243 L98G/Y99P): T1 sequence (P16562 22-243) with L77G, Y78P
Method: as §2

A1BG = biological target: T4, A1BG (Homo sapiens, UniProt P04217); assay: MST lipid binding to A1BG; settings: A1BG alone
T4 construct: made in house; host or cells: E. coli BL21
T4 sequence (P04217 22-495): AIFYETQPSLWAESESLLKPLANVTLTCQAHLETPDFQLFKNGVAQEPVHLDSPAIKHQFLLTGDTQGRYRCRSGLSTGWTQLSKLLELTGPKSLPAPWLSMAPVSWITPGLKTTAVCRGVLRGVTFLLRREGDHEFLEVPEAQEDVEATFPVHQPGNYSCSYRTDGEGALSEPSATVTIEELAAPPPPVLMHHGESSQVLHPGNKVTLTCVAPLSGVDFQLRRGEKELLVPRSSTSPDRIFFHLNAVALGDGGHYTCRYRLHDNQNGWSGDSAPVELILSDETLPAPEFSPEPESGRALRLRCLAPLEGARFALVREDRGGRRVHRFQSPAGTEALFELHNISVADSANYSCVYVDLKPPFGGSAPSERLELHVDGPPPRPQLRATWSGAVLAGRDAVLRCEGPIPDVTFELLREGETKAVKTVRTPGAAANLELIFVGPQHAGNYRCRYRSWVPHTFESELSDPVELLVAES
Method: as §2

[3] = biological target: CRISP2 (cysteine-rich secretory protein 2), purified, fluorescently labeled (UniProt P16562); assay: MST; 100 nM RED-tris-NTA-labeled CRISP2 (or L98G Y99P mutant) mixed with a serial dilution of unlabeled A1BG or Ig domain; 20 mM Tris pH 7.5, 30 mM NaCl, 0.05% Triton X-100; Monolith NT.115, 80% laser power; one site specific fit; triplicates

Compound: CC(C)CCC[C@@H](C)[C@H]1CC[C@H]2[C@@H]3CC=C4C[C@@H](OS(=O)(=O)O)CC[C@]4(C)[C@H]3CC[C@]12C [cholesterol sulfate]
Kd (CRISP2 [1]; Kd of cholesterol sulfate binding by CRISP2 + EDTA + MgCl2, MST, EDTA 5 mM, MgCl2 10 mM): 70 ± 20 nM | Kd (CRISP2 [1]; Kd of cholesterol sulfate binding by CRISP2, MST, CRISP2 alone): 3210 nM and 2630 nM | Kd (CRISP2 [1]; Kd of cholesterol sulfate binding by CRISP2 in the presence of Ig4, MST, CRISP2-Ig4): 2050 ± 760 nM | Kd of cholesterol sulfate binding by CRISP2 in the presence of A1BG (CRISP2 [1]; MST, equimolar concentration of A1BG): blocked | Kd (CRISP2 [2]): 4000 ± 1980 nM | Kd of cholesterol sulfate binding by CRISP2 L98G Y99P in the presence of Ig3 (CRISP2^L98G Y99P): inhibited

Compound: CCCCCCCCCCCCCCCC(=O)O [palmitic acid]
Kd (CRISP2 [1]; Kd of palmitic acid binding by CRISP2, MST, CRISP2 alone): 64600 ± 20700 nM | Kd (CRISP2 [1]; Kd of palmitic acid binding by CRISP2 in the presence of A1BG, MST, CRISP2+A1BG): 70000 ± 22700 nM | Kd of palmitic acid binding by A1BG (A1BG): did not bind

Kd [3]: 38.7 nM
Compound: Ig1 domain of A1BG, purified (domain or fragment)

Kd [3]: 13.8 nM
Compound: Ig3 domain of A1BG, purified (domain or fragment)
